Target: ROS (Homo sapiens, UniProt P08922)
Assay: In vitro ROS enzymatic reaction assay (HTRF, Cisbio)
Assay type: biochemical
Set-up: ROS or EGFR enzyme, 0.008 ng/ul
Conditions: for Kinase Inhib. 5 uM (%) / inhibition at 5 µM / inhibition at 10 µM / Kinase Inhib. 10 uM (%): ROS kinase; for Kinase Inhib. 5 uM (%) / inhibition at 5 µM: compound at 5 uM; for inhibition at 5 µM: read-out: Kinase Inhib. 5 uM (%); for inhibition at 10 µM / Kinase Inhib. 10 uM (%): compound at 10 uM; for inhibition at 10 µM: read-out: Kinase Inhib. 10 uM (%)
Procedure: The ROS enzymatic reactions were carried out with a high throughput screening platform for phosphor-detection of kinase activity. This platform based on homogeneous time resolved fluorescence (HTRF) technology from Cisbio Bioassays, Inc. (Cisbio). […] The reaction was allowed to proceed for 30 minutes at room temperature. An equal volume of detection buffer was then added to the reaction mix.

Chain of ROS (P08922 28-2347): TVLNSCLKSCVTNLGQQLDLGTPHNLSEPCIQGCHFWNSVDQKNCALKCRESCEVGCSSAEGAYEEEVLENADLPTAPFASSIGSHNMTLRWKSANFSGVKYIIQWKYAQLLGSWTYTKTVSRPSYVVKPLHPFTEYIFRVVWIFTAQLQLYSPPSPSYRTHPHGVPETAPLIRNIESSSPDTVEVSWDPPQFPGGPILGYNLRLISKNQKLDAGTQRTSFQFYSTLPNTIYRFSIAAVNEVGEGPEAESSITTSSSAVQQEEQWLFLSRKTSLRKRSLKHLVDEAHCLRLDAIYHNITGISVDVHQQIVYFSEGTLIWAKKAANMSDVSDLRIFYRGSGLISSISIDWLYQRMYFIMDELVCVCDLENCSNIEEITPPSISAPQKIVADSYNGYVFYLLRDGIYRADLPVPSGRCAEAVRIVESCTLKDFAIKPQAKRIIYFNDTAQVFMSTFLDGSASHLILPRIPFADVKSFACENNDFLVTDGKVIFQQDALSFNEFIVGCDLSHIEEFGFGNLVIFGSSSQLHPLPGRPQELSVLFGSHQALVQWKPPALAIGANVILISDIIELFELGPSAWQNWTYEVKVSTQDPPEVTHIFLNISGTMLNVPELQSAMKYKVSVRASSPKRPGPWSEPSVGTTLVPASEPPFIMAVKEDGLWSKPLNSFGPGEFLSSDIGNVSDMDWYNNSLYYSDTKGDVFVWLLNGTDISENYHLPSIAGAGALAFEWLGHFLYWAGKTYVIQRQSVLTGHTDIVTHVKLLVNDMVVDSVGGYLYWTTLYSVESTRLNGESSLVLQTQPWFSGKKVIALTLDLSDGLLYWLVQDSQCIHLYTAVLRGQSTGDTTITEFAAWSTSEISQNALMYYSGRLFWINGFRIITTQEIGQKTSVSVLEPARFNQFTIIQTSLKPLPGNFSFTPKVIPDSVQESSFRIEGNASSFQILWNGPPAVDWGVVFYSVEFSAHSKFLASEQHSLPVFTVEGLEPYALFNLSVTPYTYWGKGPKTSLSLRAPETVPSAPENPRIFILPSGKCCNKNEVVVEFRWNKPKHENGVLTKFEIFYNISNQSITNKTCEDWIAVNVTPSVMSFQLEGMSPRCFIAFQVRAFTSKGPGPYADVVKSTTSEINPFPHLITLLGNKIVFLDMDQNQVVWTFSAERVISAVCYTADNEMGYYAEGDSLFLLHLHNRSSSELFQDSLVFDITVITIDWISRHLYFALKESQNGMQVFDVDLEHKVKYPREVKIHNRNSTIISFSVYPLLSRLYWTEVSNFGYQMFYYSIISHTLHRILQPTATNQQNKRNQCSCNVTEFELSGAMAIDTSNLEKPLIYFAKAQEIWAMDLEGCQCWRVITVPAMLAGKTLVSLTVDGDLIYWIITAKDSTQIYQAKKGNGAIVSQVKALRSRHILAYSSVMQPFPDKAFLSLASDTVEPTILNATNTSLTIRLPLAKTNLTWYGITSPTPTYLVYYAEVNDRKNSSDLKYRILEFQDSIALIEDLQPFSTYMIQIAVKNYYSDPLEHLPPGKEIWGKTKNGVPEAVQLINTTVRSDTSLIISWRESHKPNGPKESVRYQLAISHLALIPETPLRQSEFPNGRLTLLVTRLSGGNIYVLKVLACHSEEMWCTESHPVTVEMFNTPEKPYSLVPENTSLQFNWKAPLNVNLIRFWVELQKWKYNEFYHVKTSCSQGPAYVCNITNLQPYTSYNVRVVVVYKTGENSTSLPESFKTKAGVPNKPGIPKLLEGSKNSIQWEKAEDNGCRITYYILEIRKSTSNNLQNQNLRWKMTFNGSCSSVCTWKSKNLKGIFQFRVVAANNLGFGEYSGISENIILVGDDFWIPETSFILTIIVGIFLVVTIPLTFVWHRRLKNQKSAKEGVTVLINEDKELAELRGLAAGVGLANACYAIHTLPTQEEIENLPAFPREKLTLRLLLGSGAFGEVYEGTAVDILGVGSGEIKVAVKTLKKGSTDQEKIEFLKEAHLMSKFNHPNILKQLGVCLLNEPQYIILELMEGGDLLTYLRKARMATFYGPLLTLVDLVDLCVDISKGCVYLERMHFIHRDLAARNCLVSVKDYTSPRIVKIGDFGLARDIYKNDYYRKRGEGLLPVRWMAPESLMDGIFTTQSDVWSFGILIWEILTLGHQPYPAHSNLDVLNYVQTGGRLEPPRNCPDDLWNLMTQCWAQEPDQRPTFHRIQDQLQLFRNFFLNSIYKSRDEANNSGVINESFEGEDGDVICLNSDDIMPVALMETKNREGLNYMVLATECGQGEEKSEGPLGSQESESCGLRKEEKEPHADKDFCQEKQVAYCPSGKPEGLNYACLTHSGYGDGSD

Compound | IC50 [nM] | inhibition at 5 µM [%] | further results
O=C(c1ccccc1)c1nc(-c2ccco2)[nH]c1NCc1ccccc1 | – | – | Kinase Inhib. 5 uM (%): 25.92%
NS(=O)(=O)c1ccc(CCNC(=O)c2cc(-c3cccs3)nc3ccccc23)cc1 [drawing 221] | – | – | inhibition at 10 µM: 21.5%
CC(C)c1nc(Nc2ccc(N)cc2)nc(Nc2ccc3ncsc3c2)n1 | 746 | – | –
O=C(NCc1ccco1)c1cccc(Nc2nccc(Nc3ccc4ncsc4c3)n2)c1 [drawing 239] | 160 | 101 | –
Cc1cccc(Nc2nccc(Nc3cccc(C(=O)NCc4ccccc4F)c3)n2)c1 [drawing 275] | – | 33.3 | –
COc1ccc(C(F)(F)F)cc1NC(=O)CCn1ccc2ccccc21 [drawing 339] | – | – | inhibition at 10 µM: 26.4%
O=C(NNc1nc2ccccc2nc1Cc1ccccc1)c1cccc(Cl)c1 [drawing 229] | – | – | inhibition at 10 µM: 24.3%
O=C(NNc1cc(C(F)(F)F)ccc1Cl)c1cccnc1Oc1ccccc1 [drawing 253] | > 100000 | – | inhibition at 10 µM: 31.2%
CC(C)c1nc(NCC2CCCCC2)nc(Nc2ccc3ncsc3c2)n1 | 528 | – | –
Nc1nc(N)n(-c2ccccc2)/c(=N/c2ccccc2)n1 [drawing 258] | > 100000 | – | inhibition at 10 µM: 34.5%
Cc1cc(-c2ccccc2)c2ccc(N)nc2n1 [drawing 343] | – | – | inhibition at 10 µM: 28.9%
CC(C)c1nc(Nc2ccc(Br)cc2)nc(Nc2ccc3ncsc3c2)n1 | 840 | – | –
Cc1cccc(C(=O)n2nc(-c3ccco3)nc2NCc2ccccc2)c1 [drawing 294] | – | – | Kinase Inhib. 5 uM (%): 25.09%
O=C1c2ccccc2C(=O)N1C[C@H](O)Cn1nc(-c2cccs2)c2ccccc2c1=O [drawing 268] | – | – | Kinase Inhib. 5 uM (%): 20.74%
Cc1cc(=O)n2nc(CC(=O)c3ccccc3)[nH]c2n1 | – | 33.2 | –
O=C(c1ccc(Nc2ncc(Br)c(Nc3ccc4ncsc4c3)n2)cc1)N1CCCCC1 | 620 | – | –
O=c1c(O)c(-c2ccc(O)c(O)c2)oc2cc(O)cc(O)c12 [drawing 269] | 50 | 99.6 | inhibition at 10 µM: 98.2%
Cc1[nH]c2nc(NCc3cccc([N+](=O)[O-])c3)nn2c(=O)c1Cc1ccccc1 [drawing 222] | – | – | Kinase Inhib. 10 uM (%): 23.83%
Oc1[nH]nc2nnc(-c3ccccc3)c(-c3ccccc3)c12 [drawing 257] | 20400 | – | inhibition at 10 µM: 35.6%
O=c1cc(Oc2ccccc2)c(-c2nc[nH]n2)nn1-c1ccccc1 [drawing 228] | – | – | Kinase Inhib. 10 uM (%): 20.40%
CCC(C)(C)NC(=O)c1cccc(Nc2nccc(Nc3ccc4ncsc4c3)n2)c1 [drawing 243] | 620 | 101 | –
CC1=NNC(=O)/C1=C\c1cn(-c2ccccc2)nc1-c1ccccc1 [drawing 266] | 1220 | 62 | –
Cc1cccc(Nc2nccc(Nc3cccc(C(=O)NCc4ccc(F)cc4)c3)n2)c1 [drawing 242] | – | 23.7 | –

Compound | IC50 [nM] | inhibition at 5 µM [%] | further results
Cc1nc2cc(C(=O)N[C@H](c3ccccc3)c3cccnc3)ccc2[nH]1 [drawing 261] | – | 23.6 | –
CC(C)c1nc(Nc2cccc(OC(F)(F)F)c2)nc(Nc2cc(C3CC3)n[nH]2)n1 | 40 | – | –
Cc1cccc(Nc2ccnc(Nc3cccc(C(=O)N4CC=CCC4)c3)n2)c1 [drawing 234] | 80 | 94.2 | –
COc1ccccc1C1C(C#N)=C(N)Oc2[nH]nc(C)c21 (centres unmarked) | – | – | Kinase Inhib. 5 uM (%): 27.58%
O=C(CCn1ccc2ccccc21)Nc1ccc(F)cc1 [drawing 338] | – | – | inhibition at 10 µM: 23.2%
O=C(NCC1CCCO1)c1cccc(Nc2nccc(Nc3ccc4ncsc4c3)n2)c1 (centres unmarked) | – | 101 | –
COc1ccc(Nc2nc(N(C)CCO)nc3c2cnn3-c2ccccc2)cc1 [drawing 250] | – | – | Kinase Inhib. 5 uM (%): 41.55%
COc1ccccc1NC(=O)C1=C(C)Nc2ncnn2C1c1ccc[nH]1 (centres unmarked) | – | – | Kinase Inhib. 5 uM (%): 40.40%
Nc1nc(Nc2ccc(C(=O)N3CCCCCC3)cc2)cc(Nc2ccc3ncsc3c2)n1 [drawing 272] | – | – | Kinase Inhib. 5 uM (%): 22.67%
O=C(NCC1CCCCC1)c1cccc(Nc2nccc(Nc3ccc4ncsc4c3)n2)c1 [drawing 270] | – | 32.6 | –
CCOC(=O)c1ccc(NC(=O)CCn2ccc3ccccc32)cc1 [drawing 336] | – | – | inhibition at 10 µM: 24.5%
Cc1c(Br)c([N+](=O)[O-])nn1[C@H](C)C(=O)Nc1c(C)n(C)n(-c2ccccc2)c1=O | > 100000 | – | inhibition at 10 µM: 34.1%
O=C(NCCc1ccc(F)cc1)c1cccc(Nc2nccc(Nc3ccc4ncsc4c3)n2)c1 [drawing 235] | 130 | – | Kinase Inhib. 5 uM (%): 100.68%
COc1ccc(NC(=O)CC2=Nc3cccc4cccc(c34)NC2=O)cc1 [drawing 345] | – | – | inhibition at 10 µM: 26.5%
O=C(NCCc1ccccc1)c1cccc(Nc2nccc(Nc3ccc4ncsc4c3)n2)c1 [drawing 281] | – | – | Kinase Inhib. 5 uM (%): 94.23%
COc1cccc(Nc2cc(Nc3cccc(C(=O)N4CCN(C(C)=O)CC4)c3)nc(N)n2)c1 [drawing 240] | – | 22.3 | –
CCN(CC)CCNC(=O)c1cccc(Nc2nccc(Nc3ccc4ncsc4c3)n2)c1 [drawing 236] | – | 102 | –
O=C1NN=C(c2ccccc2)/C1=C/Nc1ccccc1 [drawing 231] | – | 30.6 | –
CN1CCN(C(=O)c2cccc(Nc3nccc(Nc4ccc5ncsc5c4)n3)c2)CC1 [drawing 278] | 140 | 99.4 | –
O=C(CC1=Nc2cccc3cccc(c23)NC1=O)NCc1cccc(I)c1 [drawing 346] | – | – | inhibition at 10 µM: 22.5%
CC(C)c1nc(Nc2ccc3ncsc3c2)nc(NC2CCCCC2)n1 | 1500 | – | –
Cc1cccc(Nc2nccc(Nc3cccc(C(=O)NCCN4CCOCC4)c3)n2)c1 [drawing 244] | 2100 | 98.4 | –

Continued, in another order:

IC50 [nM] | inhibition at 5 µM [%] | Compound | further results
760 | 98.8 | CC(C)c1nc(Nc2ccc(C(=O)NC3CCCCC3)cc2)nc(Nc2ccc3ncsc3c2)n1 [drawing 319] | –
> 5000 | 20.4 | CC(C)c1nc(Nc2ccc(N)cc2)nc(Nc2cc(C3CC3)[nH]n2)n1 [drawing 324] | –
450 | 100 | O=C(c1cccc(Nc2nccc(Nc3ccc4ncsc4c3)n2)c1)N1CCCCCC1 [drawing 284] | –
– | 98.6 | Cc1cccc(Nc2nccc(Nc3cccc(C(=O)N(C)CCCN(C)C)c3)n2)c1 [drawing 288] | –
3890 | 90.7 | CC(C)c1nc(Nc2ccc(C(=O)N3CCN(C)CC3)cc2)nc(Nc2ccc3ncsc3c2)n1 [drawing 321] | –
3690 | 97.4 | CC(C)c1nc(Nc2ccc(C(=O)NCc3ccccc3)cc2)nc(Nc2ccc3ncsc3c2)n1 [drawing 322] | –
> 5000 | 58.6 | CC(C)c1nc(Nc2ccc(C(=O)N3CCCCC3)cc2)nc(Nc2ccc3ncsc3c2)n1 [drawing 318] | –
– | 100 | C[C@@H](Oc1cc(-c2cnn(C3CCNCC3)c2)cnc1N)c1c(Cl)ccc(F)c1Cl [drawing 354] | –
1780 | 83.8 | O=C(COc1ccccc1)NCC(c1cccs1)S(=O)(=O)c1ccc(Cl)cc1 (centres unmarked) [drawing 290] | inhibition at 10 µM: 102%
– | 92.9 | Cc1cccc(Nc2nccc(Nc3cccc(C(=O)NCCCN4CCOCC4)c3)n2)c1 [drawing 279] | –
582 | 101 | O=C(NCc1ccc(F)cc1)c1cccc(Nc2nccc(Nc3ccc4ncsc4c3)n2)c1 [drawing 286] | –
> 5000 | 25.3 | CC(C)c1nc(Nc2ccc(C(=O)NCC3CCCCC3)cc2)nc(Nc2cccc(Cc3nc4ccccc4s3)c2)n1 [drawing 317] | –
